Experimental findings from US8106052B2, “Luminescence-based methods and probes for measuring cytochrome P450 activity” (Promega Corporation, priority 2002, dated 2012) are described below.

Data set [1] relates to pooled human liver microsomes. Briefly: Pooled human liver microsomes in two-step luminescent CYP450 reaction. The note with it: for CYP450 activity detected with the substrate compared to Sf9 cell membranes: pooled human liver microsomes, 60 minutes at 37° C.; for Effect on activity against Luc BE: substrate Luc BE, ketoconazole 100 micromolar. The protocol:
FIG. 8. Pooled human liver microsomes in two-step luminescent CYP450 reactions. D-luciferin derivatives were incubated in a CYP450 reaction mix with pooled human liver microsomes for 60 minutes at 37° C. before combining with a luciferase reaction mixture. For controls liver microsomes were replaced with control (no CYP450) Sf9 cell membranes. Luminescence was read within 12 minutes of combining the reactions on a Berthold Orion luminometer. […] Values labeled “nt” are vehicle controls.
(§1) In this Example, a procedure for a two-step CYP450/luciferase assay is provided. Luciferin derivatives were evaluated as P450 substrates and luciferase pro-substrates using this procedure. 20 microliter CYP450 reactions were prepared at pH 7.4 in an amount of KPO4 buffer that is optimal for a given CYP450 isoform (100 mM for CYP1A1, CYP1A2, CYP2B6, CYP2D6 and CYP2E1; 50 mM for CYP2C8 and CYP2C19; 25 mM for 2C9 and for pooled human liver microsomes; 200 mM for CYP3A4). For CYP2A6 100 mM Tris at pH 7.5 was substituted for KPO4. […] Reactions were initiated by addition of 0.4 pmoles recombinant human CYP450 co-expressed with CYP450 reductase in Sf9 cell microsomal membranes or 4 microgram pooled human liver microsomes and incubation at 37° C. After an initial incubation period at 37° C. 20 microliter CYP450 reactions were mixed with an 80 microliter luciferase reaction mix. […] Assays were also performed using 50 microliter CYP450 and luciferase reaction volumes (e.g., FIG. 3, panel B, table 3). Light output was measured immediately in a Turner Reporter, Turner 20/20 or Berthold Orion luminometer. Because the calibration of instruments from different manufacturers varies the quantitation of light output is instrument-specific and direct comparisons between instruments cannot be made.

For data set [2], the target named is T1, CYP3A4 (Homo sapiens, UniProt P08684). Briefly: One-step CYP450/luciferase reaction. The settings on record: 37° C. The protocol:
(§2) Luciferin derivatives were evaluated as P450 substrates and luciferase pro-substrates using this procedure.

Data set [3] addresses T2, CYP2C9 (Homo sapiens, UniProt P11712). Briefly: Two-step CYP450/luciferase reaction, luciferin derivative evaluation as substrate. The settings on record: for Light output over controls with CYP2C9: CYP450 incubation 60 minutes at 37° C., then luciferase. The protocol: as §1
(§3) O-dealkylation and hydroxylation are common CYP450 catalyzed xenobiotic transformations (9). […] The CYP450 activities tested are contained in microsome fractions from insect cells that over-express a single recombinant human CYP450 isoform in combination with NADPH CYP450 reductase. It was reasoned that if CYP450s dealkylated or hydroxylated the luciferin derivatives at the 6′ position, authentic luciferin would be generated that could be detected enzymatically in a light generating firefly luciferase reaction as described by the equation in FIG. 1.
(§4) The panel included CYP1A1, CYP1A2, CYP2A6, CYP2B6, CYP2C8, CYP2C9, CYP2C19, CYP2D6, CYP2E1 and CYP3A4. After an initial incubation with CYP450, luciferase and its requisite cofactors were added and light output was monitored (FIGS. 3 and 9).
Target sequence in this assay (P11712 whole entry, canonical isoform): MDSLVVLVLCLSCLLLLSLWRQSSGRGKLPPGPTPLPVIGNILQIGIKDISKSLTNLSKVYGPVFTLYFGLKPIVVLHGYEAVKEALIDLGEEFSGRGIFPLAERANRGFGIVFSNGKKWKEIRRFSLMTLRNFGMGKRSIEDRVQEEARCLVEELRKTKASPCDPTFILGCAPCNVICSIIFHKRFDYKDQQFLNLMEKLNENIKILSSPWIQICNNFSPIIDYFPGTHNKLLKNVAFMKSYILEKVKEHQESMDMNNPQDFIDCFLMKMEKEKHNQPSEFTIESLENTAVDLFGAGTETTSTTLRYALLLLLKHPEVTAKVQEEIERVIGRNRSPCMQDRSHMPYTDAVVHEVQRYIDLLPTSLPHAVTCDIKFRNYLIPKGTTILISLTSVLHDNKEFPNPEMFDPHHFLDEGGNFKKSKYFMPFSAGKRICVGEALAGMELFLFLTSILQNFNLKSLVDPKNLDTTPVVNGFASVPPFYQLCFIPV

Data set [4] has as its target T1, CYP3A4. The protocol:
as §1, §3, §4

The next data set addresses T3, CYP2C8 (Homo sapiens, UniProt P10632).
T3 sequence (P10632 1-490): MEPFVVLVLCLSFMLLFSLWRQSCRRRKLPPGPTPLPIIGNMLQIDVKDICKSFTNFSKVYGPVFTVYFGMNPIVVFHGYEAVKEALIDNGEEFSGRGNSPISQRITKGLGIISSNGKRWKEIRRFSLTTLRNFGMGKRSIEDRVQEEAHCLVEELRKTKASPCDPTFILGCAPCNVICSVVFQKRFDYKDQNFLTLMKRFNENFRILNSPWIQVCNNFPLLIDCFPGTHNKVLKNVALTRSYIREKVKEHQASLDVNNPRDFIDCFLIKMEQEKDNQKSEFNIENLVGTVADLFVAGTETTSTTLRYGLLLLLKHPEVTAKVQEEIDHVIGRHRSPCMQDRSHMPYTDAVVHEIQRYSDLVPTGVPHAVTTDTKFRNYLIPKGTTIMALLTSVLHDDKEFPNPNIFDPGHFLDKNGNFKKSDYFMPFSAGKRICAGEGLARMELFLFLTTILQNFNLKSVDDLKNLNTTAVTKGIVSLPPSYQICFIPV
The note with it: CYP450 incubation 60 minutes at 37° C., then luciferase. The protocol:
as §1, §3, §4

The next data set deals with T4, CYP1A2 (Homo sapiens, UniProt P05177).
T4 sequence (P05177 1-516): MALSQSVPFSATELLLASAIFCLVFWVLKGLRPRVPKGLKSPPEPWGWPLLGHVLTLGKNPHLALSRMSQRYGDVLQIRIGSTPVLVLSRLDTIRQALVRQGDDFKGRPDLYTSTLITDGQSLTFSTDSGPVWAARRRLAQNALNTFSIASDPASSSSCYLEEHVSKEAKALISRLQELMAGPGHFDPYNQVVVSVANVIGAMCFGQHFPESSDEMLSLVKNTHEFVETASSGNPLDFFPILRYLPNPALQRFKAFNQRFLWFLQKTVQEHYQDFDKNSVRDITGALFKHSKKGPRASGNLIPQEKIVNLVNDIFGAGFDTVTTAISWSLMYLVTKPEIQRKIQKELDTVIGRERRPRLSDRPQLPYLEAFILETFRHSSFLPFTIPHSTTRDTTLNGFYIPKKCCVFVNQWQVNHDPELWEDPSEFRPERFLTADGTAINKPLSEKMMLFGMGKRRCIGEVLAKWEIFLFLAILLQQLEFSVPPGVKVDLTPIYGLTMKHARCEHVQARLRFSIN
As to the kind of experiment: Two-step CYP450/luciferase reaction, luciferin derivative evaluation as substrate. The settings on record: CYP450 incubation 60 minutes at 37° C., then luciferase. The protocol:
as §1, §3, §4

Data set [5] deals with T5, CYP1A1 (Homo sapiens, UniProt P04798).
T5 sequence (P04798 1-512): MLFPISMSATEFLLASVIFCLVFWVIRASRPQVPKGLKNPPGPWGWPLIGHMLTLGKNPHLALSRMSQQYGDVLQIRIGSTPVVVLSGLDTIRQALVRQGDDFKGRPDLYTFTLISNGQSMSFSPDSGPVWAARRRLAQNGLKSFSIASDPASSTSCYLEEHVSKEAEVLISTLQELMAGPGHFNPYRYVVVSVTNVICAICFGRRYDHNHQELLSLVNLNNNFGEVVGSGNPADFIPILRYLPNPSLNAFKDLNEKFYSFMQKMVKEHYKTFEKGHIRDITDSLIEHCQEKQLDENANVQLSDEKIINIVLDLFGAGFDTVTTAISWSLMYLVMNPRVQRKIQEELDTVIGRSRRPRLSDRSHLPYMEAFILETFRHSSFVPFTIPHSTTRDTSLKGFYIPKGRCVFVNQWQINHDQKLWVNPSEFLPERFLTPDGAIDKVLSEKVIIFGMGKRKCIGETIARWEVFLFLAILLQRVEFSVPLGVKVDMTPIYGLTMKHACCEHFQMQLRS
The note with it: CYP450 incubation 60 minutes at 37° C., then luciferase. As to the method: as §1, §3, §4

The target of data set [6] is T2, CYP2C9. As to the kind of experiment: CYP450-catalyzed conversion of luciferin derivatives to luciferin (HPLC). The settings on record: 100 micromolar, 37 C, HPLC with fluorescence detection. It counts as biochemical.
Target sequence in this assay (P11712 whole entry, species assumed, canonical isoform): as the sequence (P11712 whole entry, canonical isoform) above
Data set [7] deals with T2, CYP2C9. Briefly: One-step CYP450/luciferase reaction. The data set is classed as biochemical. On the set-up: purchased GenTest (Woburn, Mass.); host or cells: Sf9 insect cells. The note with it: 37° C. As to the method:
as §2
Target sequence in this assay (P11712 whole entry, canonical isoform): as the sequence (P11712 whole entry, canonical isoform) above

In data set [8] the target is T5, CYP1A1. Briefly: CYP450-catalyzed conversion of luciferin derivatives to luciferin (HPLC). The note with it: 100 micromolar, 37 C, HPLC with fluorescence detection. The protocol: At various time intervals, the reactions were stopped by the addition of Tergitol to 0.1% (v/v) and flash freezing in liquid nitrogen. 95 microliter aliquots of each reaction mixture were subjected to fractionation by HPLC. […] Separation was achieved on a 5 micron Adsorbosphere HS C18 column (Alltech Associates) with a solvent gradient of 0.05M KH2PO4/pH 6 (solvent A) and 80:20 acetonitrile/water (solvent B). The gradient conditions used were 15% B to 95% B over 10 min.

The mark [9] stands for this setting: two-step, 37° C., up to 60 minutes.
Setting [10] is: alpha-naphthoflavone 10 micromolar.

Read-outs that look alike come from different tables or passages of the source.

T1 sequence (P08684 whole entry): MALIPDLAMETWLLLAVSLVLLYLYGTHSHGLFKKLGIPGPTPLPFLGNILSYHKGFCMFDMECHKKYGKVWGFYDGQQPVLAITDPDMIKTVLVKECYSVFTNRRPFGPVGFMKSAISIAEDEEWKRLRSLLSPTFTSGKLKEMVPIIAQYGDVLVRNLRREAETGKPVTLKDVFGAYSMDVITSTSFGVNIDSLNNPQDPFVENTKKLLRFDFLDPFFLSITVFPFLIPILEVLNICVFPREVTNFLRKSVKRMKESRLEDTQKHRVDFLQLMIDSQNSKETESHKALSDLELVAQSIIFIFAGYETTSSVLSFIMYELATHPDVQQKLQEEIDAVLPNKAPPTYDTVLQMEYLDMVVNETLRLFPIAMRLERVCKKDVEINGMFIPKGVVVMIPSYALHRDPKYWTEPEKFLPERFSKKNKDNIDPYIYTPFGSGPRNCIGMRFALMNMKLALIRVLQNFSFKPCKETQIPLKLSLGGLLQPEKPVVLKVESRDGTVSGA

`O=C(O)[C@H]1CSC(c2nc3ccc(OCc4ccccc4)cc3s2)=N1` [Luc BE, Luciferin 6′-benzyl ether]: in data set [1], the “CYP450 activity detected with the substrate compared to Sf9 cell membranes” value was “significant amounts of CYP450 activity was detected”. Also, the “Difference in light output to -CYP450 control, one-step with CYP3A4” value at CYP3A4 [2] is listed as “modest”. Besides, the “Light output over controls with CYP2C9” value at CYP2C9 [3] is “increased significantly”. Moreover, the “Light output over controls with CYP3A4” value at CYP3A4 [4] (CYP450 incubation 60 minutes at 37° C., then luciferase) is reported as “increased significantly”. Further, on CYP3A4 [4] (setting [9]), the “Time-dependence of light output on CYP3A4/substrate incubation” value is “increased in a linear fashion for up to 60 minutes”. Further, the “Light output over controls with CYP2C8” value at CYP2C8 was “increased significantly”.
For `CC(=O)N1CCN(c2ccc(OCC3COC(Cn4ccnc4)(c4ccc(Cl)cc4Cl)O3)cc2)CC1` (stereo not drawn) [Ketoconazole, ketoconazole], the “Inhibition of light output with H-Luc” value in data set [1] (substrate H-Luc, sulfaphenazole and ketoconazole 100 micromolar) is given as “Partial inhibition”. For the same compound, the “Effect on activity against Luc BE” value in data set [1] (setting [10]) was “Inhibition”.
On to `CCOc1ccc2nc(C3=N[C@@H](C(=O)O)CS3)sc2c1` [Luc EE, luciferin 6′ ethyl ether], for which, in data set [1], the “CYP450 activity detected with the substrate compared to Sf9 cell membranes” value is reported as “significant amounts of CYP450 activity was detected”. Besides, the “Light output over controls with CYP1A2” value on CYP1A2 is listed as “increased significantly”. Further, at CYP2C9 [3], the “Light output over controls with CYP2C9” value is given as “increased significantly”. For the same compound, the “Light output over controls with CYP2C8” value on CYP2C8 is “increased significantly”. On CYP1A1 [5], the “Light output over controls with CYP1A1” value was “increased significantly”.
With `O=c1cc(-c2ccccc2)oc2c1ccc1ccccc12` [Alpha-Naphpthoflavone, alpha-naphthoflavone], in [1] (setting [10]), the “Effect on activity against Luc BE” value is listed as “slight stimulation”. Besides, the “Inhibition of microsomal light output” value in data set [1] (substrates H-Luc, Luc ME, Luc EE, Luc BE, alpha-naphthoflavone 10 micromolar) is “lack of inhibition”.
Regarding `Nc1ccc(S(=O)(=O)Nc2ccnn2-c2ccccc2)cc1` [Sulfaphenazole, sulfaphenazole], the “Inhibition of light output with H-Luc” value in data set [1] is reported as “near complete inhibition”.
For the compound `O=C(O)C1CSC(c2nc3ccccc3s2)=N1` (stereo not drawn) [H-Luc, 6′-Deoxyluciferin], at CYP2C9 [6], the “Conversion to luciferin by CYP2C9” value is given as “confirmed”. For the same compound, the “Light output over time, one-step with CYP2C9” value at CYP2C9 [7] is “increasing to a maximum by about 30 minutes and declining thereafter”. Moreover, in data set [1], the “CYP450 activity detected with the substrate compared to Sf9 cell membranes” value is given as “significant amounts of CYP450 activity was detected”. In addition, at CYP1A2, the “Light output over controls with CYP1A2” value is listed as “increased light output over controls”. Further, the “Light output over controls with CYP2C9” value at CYP2C9 [3] is “increased light output over controls”. For the same compound, the “Time-dependence of light output on CYP2C9/substrate incubation” value on CYP2C9 [3] (setting [9]) is given as “increased in a linear fashion for up to 60 minutes”.
For `O=C(O)[C@H]1CSC(c2nc3ccc(OCCCl)cc3s2)=N1` [Luc CEE, Luciferin 6′-(2-chloroethyl)ether], the “Light output over controls with CYP1A2” value on CYP1A2 was “increased significantly”. For the same compound, on CYP2C9 [3], the “Light output over controls with CYP2C9” value is recorded as “increased significantly”. Besides, the “Light output over controls with CYP2C8” value at CYP2C8 is on record as “increased significantly”. In addition, the “Light output over controls with CYP1A1” value on CYP1A1 [5] is “increased significantly”. For the same compound, the “Conversion to luciferin by CYP1A1” value on CYP1A1 [8] is on record as “confirmed”.
